Results: ChEMBL document CHEMBL4340509, “Synthesis and evaluation of novel GSK-3β inhibitors as multifunctional agents against Alzheimer's disease” (Eur J Med Chem, 2019)
The source made the active and inactive calls. The rule behind the calls is not given here.

Columns and labels:
[1] = molecular target: T1, Glycogen synthase kinase-3 beta (Homo sapiens, UniProt P49841); assay: Inhibition of GSK-3beta (unknown origin) using FAM-labeled peptide as substrate preincubated for 10 mins followed by substrate addition by caliper assay
Target sequence in this assay (P49841 whole entry): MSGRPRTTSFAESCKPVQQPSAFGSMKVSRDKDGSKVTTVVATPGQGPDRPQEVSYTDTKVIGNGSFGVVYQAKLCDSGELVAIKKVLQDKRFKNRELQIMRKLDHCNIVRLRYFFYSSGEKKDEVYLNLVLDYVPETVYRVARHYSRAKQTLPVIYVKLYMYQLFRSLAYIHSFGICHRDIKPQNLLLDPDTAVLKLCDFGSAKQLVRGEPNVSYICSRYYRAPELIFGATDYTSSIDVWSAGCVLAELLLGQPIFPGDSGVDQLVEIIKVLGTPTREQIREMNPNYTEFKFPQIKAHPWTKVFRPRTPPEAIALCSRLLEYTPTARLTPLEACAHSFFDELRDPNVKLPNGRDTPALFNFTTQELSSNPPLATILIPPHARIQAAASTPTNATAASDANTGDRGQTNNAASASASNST

[2] = Metal chelating activity assessed as compound-Zn2+ complex formation at 20 uM in presence of ZnCl2 after 30 mins by UV-visible spectrophotometric analysis
[3] = Metal chelating activity assessed as compound-Cu2+ complex formation at 20 uM in presence of CuCl2 after 30 mins by UV-visible spectrophotometric analysis
[4] = molecular target: T1, Glycogen synthase kinase-3 beta; assay: Inhibition of GSK-3beta (unknown origin) at 1 uM using FAM-labeled peptide as substrate preincubated for 10 mins followed by substrate addition by caliper assay relative to control
Target sequence in this assay (P49841 whole entry, looked up): as the sequence (P49841 whole entry) above

[5] = Metal chelating activity assessed as compound-Al3+ complex formation at 20 uM in the presence of AlCl3 after 30 mins by UV-visible spectrophotometric analysis
[6] = Metal chelating activity assessed as compound-Fe2+ complex formation at 20 uM in the presence of FeSO4 after 30 mins by UV-visible spectrophotometric analysis
[7] = Metal chelating activity assessed as K+-compound complex formation at 20 uM in the presence of KCl after 30 mins by UV-vis spectrophotometric analysis
[8] = Metal chelating activity assessed as compound-Ca2+ complex formation at 20 uM in the presence of CaCl2 after 30 mins by UV-visible spectrophotometric analysis
[9] = Metal chelating activity assessed as compound-Cu2+ complex formation by measuring shift in maximum absorption wavelength at 20 uM in presence of CuCl2 after 30 mins by UV-visible spectrophotometric analysis (reference value: 326 nanometer)
[10] = Metal chelating activity assessed as Na+-compound complex formation at 20 uM in the presence of NaCl after 30 mins by UV-vis spectrophotometric analysis
[11] = Metal chelating activity assessed as compound-Mg2+ complex formation at 20 uM in the presence of MgCl2 after 30 mins by UV-visible spectrophotometric analysis
[12] = Antioxidant activity assessed as ABTS radical scavenging activity incubated for 6 mins; format: functional
[13] = test system: SH-SY5Y; assay: Neuroprotective activity against H2O2-induced oxidative damage in human SH-SY5Y cells assessed as cell viability at 10 uM measured after 24 hrs by MTT assay relative to control; format: functional; settings: read-out: Activity
[14] = test system: PC-12; assay: Neuroprotective activity against H2O2-induced oxidative damage in rat PC12 cells assessed as cell viability at 10 uM measured after 24 hrs by MTT assay relative to control; format: functional; settings: PC-12, 24 h, read-out: Activity
[15] = Metal chelating activity assessed as compound-Cu2+ complex formation by measuring shift in maximum absorption wavelength at 20 uM in presence of CuCl2 after 30 mins by UV-visible spectrophotometric analysis (reference value: 327 nanometer)
[16] = Metal chelating activity assessed as compound-Cu2+ complex formation by measuring shift in maximum absorption wavelength at 20 uM in presence of CuCl2 after 30 mins by UV-visible spectrophotometric analysis (reference value: 338 nanometer)
[17] = Metal chelating activity assessed as compound-Cu2+ complex formation by measuring shift in maximum absorption wavelength at 20 uM in presence of CuCl2 after 30 mins by UV-visible spectrophotometric analysis (reference value: 311 nanometer)
[18] = test system: SH-SY5Y; assay: Neuroprotective activity against Cu2+-mediated amyloid beta (1 to 42) (unknown origin)-induced cytotoxicity in human SH-SY5Y cells assessed as increase in cell viability at 2 uM measured after 24 hrs by MTT assay; format: functional, cell-based
[19] = test system: SH-SY5Y; assay: Neuroprotective activity against H2O2-induced oxidative damage in human SH-SY5Y cells assessed as increase in cell viability measured after 24 hrs by MTT assay; format: functional, cell-based
[20] = molecular target: T1, Glycogen synthase kinase-3 beta; assay: Inhibition of GSK3bbeta in human SH-SY5Y cells assessed as reduction in human amyloid beta (25 to 35) peptide-induced tau hyperphosphorylation at Ser396 residue at 25 uM preincubated for 1 hr followed by amyloid beta-stimulation and measured after 6 hrs by Western blot analysis relative to control; format: cell-based
Target sequence in this assay (P49841 whole entry, looked up): as the sequence (P49841 whole entry) above

[21] = test system: SH-SY5Y; assay: Cytotoxicity against human SH-SY5Y cells at 2 uM in the presence of CuCl2 measured after 24 hrs by MTT assay; format: cell-based
[22] = Disaggregation of Cu2+ induced human HFIP-pretreated amyloid beta (1 to 42) preformed fibrils at 40 uM measured after 24 hrs by ThT-based fluorescence assay relative to control
[23] = Inhibition of Cu2+-induced HFIP pretreated human amyloid beta (1 to 42) aggregation at 40 uM measured after 24 hrs by ThT-based fluorescence assay relative to control
[24] = test system: SH-SY5Y; assay: Neuroprotective activity against amyloid beta (1 to 42) (unknown origin)-induced cytotoxicity in SH-SY5Y cells assessed as cell viability at 2 uM measured after 24 hrs by MTT assay (reference value: 78%); format: functional; settings: Homo sapiens
[25] = Potency index, ratio of trolox IC50 to test compound IC50 for ABTS radical scavenging activity; format: functional
[26] = test system: SH-SY5Y; assay: Cytotoxicity against human SH-SY5Y cells measured after 24 hrs by MTT assay; format: cell-based
[27] = Metal chelating activity assessed as inhibition of Cu(II)/ascorbate-induced ROS production by measuring fluorescence intensity at 100 uM measured at 20 secs interval for 1000 secs by fluorescence assay (reference value: 10 to 52)
[28] = test system: PC-12; assay: Cytotoxicity against rat PC12 cells measured after 24 hrs by MTT assay; format: cell-based; settings: PC-12, 24 h
[29] = molecular target: T1, Glycogen synthase kinase-3 beta; assay: Inhibition of GSK3bbeta in human SH-SY5Y cells assessed as reduction in human amyloid beta (25 to 35) peptide-induced tau hyperphosphorylation at Ser396 residue preincubated for 1 hr followed by amyloid beta-stimulation and measured after 6 hrs by Western blot analysis; format: cell-based
Target sequence in this assay (P49841 whole entry, looked up): as the sequence (P49841 whole entry) above

[30] = molecular target: Amyloid-beta precursor protein (Homo sapiens) (UniProt P05067); assay: Disaggregation of HFIP-pretreated human amyloid beta (1 to 42) preformed fibrils at 40 uM after 24 hrs by ThT-based fluorometric method relative to control
[31] = molecular target: Amyloid-beta precursor protein (Homo sapiens) (UniProt P05067); assay: Inhibition of human HFIP-pretreated amyloid beta (1 to 42) self aggregation at 40 uM after 24 hrs by ThT-based fluorometric method relative to control
[32] = Metal chelating activity assessed as compound-Cu2+ complex formation by measuring blue shift in maximum absorption at 20 uM in presence of CuCl2 after 30 mins by UV-visible spectrophotometric analysis (reference value: 244 nanometer)
[33] = Metal chelating activity assessed as compound-Al3+ complex formation by measuring blue shift in maximum absorption at 20 uM in the presence of AlCl3 after 30 mins by UV-visible spectrophotometric analysis (reference value: 407 nanometer)
[34] = molecular target: T1, Glycogen synthase kinase-3 beta; assay: Inhibition of GSK3bbeta in human SH-SY5Y cells assessed as reduction in human amyloid beta (25 to 35) peptide-induced tau hyperphosphorylation at Ser396 residue at […] preincubated for 1 hr followed by amyloid beta-stimulation and measured after 6 hrs by Western blot analysis; format: cell-based
Target sequence in this assay (P49841 whole entry, looked up): as the sequence (P49841 whole entry) above

Amyloid-beta precursor protein (Homo sapiens), sequence (P05067 whole entry): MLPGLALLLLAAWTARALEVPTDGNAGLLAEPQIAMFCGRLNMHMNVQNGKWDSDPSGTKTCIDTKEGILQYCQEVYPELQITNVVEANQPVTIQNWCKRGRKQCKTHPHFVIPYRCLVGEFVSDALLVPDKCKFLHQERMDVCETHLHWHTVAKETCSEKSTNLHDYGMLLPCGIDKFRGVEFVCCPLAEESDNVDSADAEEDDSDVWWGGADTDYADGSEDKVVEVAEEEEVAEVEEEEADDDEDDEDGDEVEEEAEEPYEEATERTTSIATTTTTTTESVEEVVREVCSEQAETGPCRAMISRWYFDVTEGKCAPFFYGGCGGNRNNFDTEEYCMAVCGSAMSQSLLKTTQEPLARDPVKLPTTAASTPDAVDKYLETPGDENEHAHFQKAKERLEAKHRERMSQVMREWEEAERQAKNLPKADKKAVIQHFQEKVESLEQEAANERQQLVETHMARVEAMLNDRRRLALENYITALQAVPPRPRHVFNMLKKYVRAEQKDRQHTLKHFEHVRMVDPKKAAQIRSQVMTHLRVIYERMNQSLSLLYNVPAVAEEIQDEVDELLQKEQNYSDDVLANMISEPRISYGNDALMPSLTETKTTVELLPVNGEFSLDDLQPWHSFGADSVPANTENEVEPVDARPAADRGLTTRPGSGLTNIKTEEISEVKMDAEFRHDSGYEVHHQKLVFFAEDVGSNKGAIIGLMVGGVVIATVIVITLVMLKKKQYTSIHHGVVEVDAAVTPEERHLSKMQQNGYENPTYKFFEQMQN

Cc1ccc(-c2cnc(N)c(/N=C/c3ccnc(NC(=O)C4CC4)c3)c2)cc1
IC50 [1]: 372 nM

Nc1ncc(-c2ccc(F)cc2)cc1NC(=O)c1ccnc(NC(=O)C2CC2)c1
Activity [2]: inactive | IC50 [1]: 240 nM | Activity [3]: inactive | inhibition [4]: 95% | Activity [5]: inactive

Nc1ncc(-c2ccccc2)cc1NCc1ccnc(NC(=O)C2CC2)c1
Activity [6]: inactive | Activity [7]: inactive | Activity [2]: inactive | Activity [8]: inactive | Activity [9]: 422 nm | Activity [10]: inactive | inhibition [4]: 27% | Activity [5]: inactive | Activity [11]: inactive

Nc1ncc(-c2ccncc2)cc1NC(=O)c1ccnc(NC(=O)C2CC2)c1
Activity [2]: inactive | IC50 [1]: 199 nM | Activity [3]: inactive | inhibition [4]: 99% | Activity [5]: inactive

Cc1ccc(-c2cnc(N)c(NC(=O)c3ccnc(NC(=O)C4CC4)c3)c2)cc1
Activity [2]: inactive | IC50 [1]: 127 nM | Activity [3]: inactive | inhibition [4]: 99% | Activity [5]: inactive

Cc1c(C)c2c(c(C)c1O)CCC(C)(C(=O)O)O2 (stereo not drawn) [TROLOX]
IC50 [12]: 14.3 µM | viability at 10 µM [13]: 90% | viability at 10 µM [14]: 79%

Cc1ccc(-c2cnc(N)c(NCc3ccnc(NC(=O)C4CC4)c3)c2)cc1
Activity [6]: inactive | Activity [7]: inactive | Activity [2]: inactive | Activity [8]: inactive | Activity [10]: inactive | inhibition [4]: 28% | Activity [5]: inactive | Activity [15]: 422 nm | Activity [11]: inactive

Cc1csc(-c2cnc(N)c(NCc3ccnc(NC(=O)C4CC4)c3)c2)c1
Activity [6]: inactive | Activity [7]: inactive | Activity [2]: inactive | Activity [8]: inactive | Activity [16]: 440 nm | Activity [10]: inactive | inhibition [4]: 17% | Activity [5]: inactive | Activity [11]: inactive

Nc1nccc(-c2ccccc2)c1/N=C/c1ccnc(NC(=O)C2CC2)c1
IC50 [1]: 633 nM

Nc1ncc(-c2ccncc2)cc1NCc1ccnc(NC(=O)C2CC2)c1
Activity [6]: inactive | Activity [7]: inactive | Activity [2]: inactive | Activity [8]: inactive | Activity [10]: inactive | inhibition [4]: 27% | Activity [5]: inactive | Activity [11]: inactive

Nc1ncccc1NCc1ccnc(NC(=O)C2CC2)c1
Activity [6]: inactive | Activity [7]: inactive | Activity [2]: inactive | Activity [8]: inactive | Activity [17]: 402 nm | Activity [10]: inactive | inhibition [4]: 33% | Activity [5]: inactive | Activity [11]: inactive

Nc1ncc(-c2ccccc2)cc1NC(=O)c1ccnc(NC(=O)C2CC2)c1
Activity [2]: inactive | IC50 [1]: 148 nM | Activity [3]: inactive | inhibition [4]: 98% | Activity [5]: inactive

Nc1ncccc1NC(=O)c1ccnc(NC(=O)C2CC2)c1
Activity [2]: inactive | IC50 [1]: 629 nM | Activity [3]: inactive | inhibition [4]: 77% | Activity [5]: inactive

Nc1nccc(-c2ccc(Cl)cc2)c1/N=C/c1ccnc(NC(=O)C2CC2)c1
IC50 [1]: > 2000 nM

Cc1ccc(-c2ccnc(N)c2/N=C/c2ccnc(NC(=O)C3CC3)c2)cc1
IC50 [1]: 1250 nM

Nc1nccc(-c2cccc(F)c2)c1/N=C/c1ccnc(NC(=O)C2CC2)c1
IC50 [1]: 891 nM

Cc1csc(-c2cnc(N)c(NC(=O)c3ccnc(NC(=O)C4CC4)c3)c2)c1
Activity [2]: inactive | IC50 [1]: 219 nM | Activity [3]: inactive | inhibition [4]: 102% | Activity [5]: inactive

Nc1ncccc1/N=C/c1ccnc(NC(=O)C2CC2)c1
Activity [6]: inactive | Activity [18]: Active | Activity [7]: inactive | Activity [2]: inactive | Activity [19]: Dose-dependent effect | IC50 [12]: 3.88 µM | inhibition [20]: < 50% | Activity [8]: inactive | Activity [21]: Non-Toxic | viability at 10 µM [13]: 92.1% | Activity [22]: 42.5% | inhibition [23]: 24.3% | viability at 10 µM [14]: 72.6% | Activity [24]: inactive | IC50 [1]: 71 nM | Activity [3]: inactive | Activity [10]: inactive | Ratio IC50 [25]: 2 to 4 | IC50 [26]: > 200 µM | Flu intensity [27]: 22 to 40 | IC50 [28]: 152 µM | inhibition [29]: Dose-dependent effect | Activity [5]: inactive | Activity [30]: inactive | inhibition [31]: inactive | Activity [11]: inactive

COc1cc(/C=C/C(=O)CC(=O)/C=C/c2ccc(O)c(OC)c2)ccc1O [CURCUMIN]
viability at 2 µM ([24]; read-out: Activity): 88% | Activity [30]: 43%

Cc1csc(-c2cnc(N)c(/N=C/c3ccnc(NC(=O)C4CC4)c3)c2)c1
IC50 [1]: 315 nM

Nc1ncc(-c2ccncc2)cc1/N=C/c1ccnc(NC(=O)C2CC2)c1
Activity [6]: inactive | Activity [18]: Active | Activity [7]: inactive | Activity [2]: inactive | Activity [19]: Dose-dependent effect | IC50 [12]: 3.44 µM | inhibition [20]: < 50% | Activity [8]: inactive | Activity [32]: 241 nm | Activity [21]: Non-Toxic | viability at 10 µM [13]: 92% | Activity [22]: 50.9% | inhibition [23]: 33.8% | viability at 10 µM [14]: 76.4% | Activity [33]: 378 nm | Activity [24]: inactive | IC50 [1]: 38 nM | Activity [10]: inactive | Ratio IC50 [25]: 2 to 4 | IC50 [26]: > 200 µM | Flu intensity [27]: 33 to 54 | IC50 [28]: 161 µM | inhibition [29]: Dose-dependent effect | Activity [30]: inactive | inhibition [31]: inactive | Activity [11]: inactive

Nc1ncc(-c2ccc(F)cc2)cc1/N=C/c1ccnc(NC(=O)C2CC2)c1
IC50 [1]: 418 nM

Nc1nccc(-c2ccc(F)cc2)c1/N=C/c1ccnc(NC(=O)C2CC2)c1
IC50 [1]: 1200 nM

[Cl-].[Li+]
inhibition [34]: Active

Oc1c(I)cc(Cl)c2cccnc12
Activity [18]: Active | Activity [22]: 34.9% | inhibition [23]: 38.8%
